Reference: PubChem BioAssay AID1845216 (Molecular Pharmacology Branch, DTP, NCI, 2023)

System: SW 982 tumor spheroid viability
Test: Anticancer human tumor SW 982 cell line growth inhibition;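 also: spheroids exposed to compound for 7 days before readout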
Settings: spheroids with HUVEC and MSC; for IC50: curve of first compound; for viability, T/C: stronger effect = lower value
Text: Multicellular complex tumor spheroid response to DNA repair inhibitors in combination with DNA-damaging drugs
This study explores the anticancer activities of DNA-damaging drugs and inhibitors of DNA damage repair, both as single agents and in combinations. Complex tumor spheroids comprised of malignant cells, endothelial cells and mesenchymal stem cells served as an in vitro model for human solid tumors. This model system incorporates physiologically relevant features and patient-derived or established malignant cell lines with clinically relevant genetic alterations from many tumor types. Twenty-six patient-derived or established malignant cell lines were evaluated representing sarcoma, melanoma, small cell lung cancer (SCLC), non-small cell lung cancer (NSCLC), as well as bladder, ovarian and pancreatic cancers. The concentration ranges selected for each drug and investigational agent were based upon clinically achievable concentrations if the clinical Cmax of the agent was known.
Compounds. The drugs and compounds olaparib (NSC753686), talazoparib (NSC767125), berzosertib (NSC777718), elimusertib (NSC800525), nedisertib (NSC802822), VX-984 (NSC792969), AZD-1390 (NSC803789), temozolomide (NSC362856), topotecan (NSC609699), trabectedin (NSC813783), staurosporine (NSC755774), and gemcitabine (NSC613327) were obtained from the National Cancer Institute (NCI) Developmental Therapeutics Program Chemical Repository. The FDA-approved anticancer drug set is available from the Developmental Therapeutics Program at https://dtp.cancer.gov/organization/dscb/obtaining/available_plates.htm. […] The stock solutions were prepared in dimethyl sulfoxide (DMSO, Sigma-Aldrich, St. Louis, MO, cat. D2650) at 400-fold the tested concentration and stored at -70 degrees C. Prior to their use, the stock solutions were diluted in fresh medium and the final DMSO concentration in the assay was 0.25% (v/v). All drugs and investigational agents were tested over a range starting from a high concentration at or near the clinical Cmax and decreasing in half-log increments. If the clinical Cmax for an agent had not been determined, the highest concentration tested was 10 microM.
Cell Lines. The patient-derived cancer cell (PDC) lines: 156681-154-R-J1-PDC, 283228-195-R-J1-PDC, 287954-098-R-J1-PDC, 292921-168-R-J2-PDC, 349418-098-R-PDC, 425362-245-T-J1-PDC, 556581-035-R-J1-PDC, and BL0293-F563-PDC were received from the NCI Patient-Derived Models Repository (PDMR, https://pdmr.cancer.gov). The established cell lines HS-SY-2 (RRID:CVCL_8719), MPNST, and SYO-1 (RRID:CVCL_7146) were obtained from the Sloan Kettering Institute. The alveolar soft parts sarcoma cell line ASPS-1 (RRID:CVCL_S738) was established at the NCI and grown from internal seed stocks. The following established cell lines were purchased from the American Type Culture Collection (ATCC, Manassas, VA): G-401 (ATCC, cat. CRL-1441, RRID:CVCL_0270), SW982 (ATCC, cat. HTB-93, RRID:CVCL_1734), VA-ES-BJ (ATCC, cat. CRL-2138, RRID:CVCL_1785), NCI-H719 (ATCC, cat. CRL-5837, RRID:CVCL_1582), NCI-H196 (ATCC, cat. CRL-5823, RRID:CVCL_1509), NCI-H841 (ATCC, cat. CRL-5845, RRID:CVCL_1595), NCI-H1618 (ATCC, cat. CRL-5879, RRID:CVCL_1480), NCI-H1876 (ATCC, cat. CRL-5902, RRID:CVCL_1503), DMS 114 (ATCC, cat. CRL-2066; RRID:CVCL_1174), NCI-H211 (ATCC, cat. CRL-5824; RRID:CVCL_1529), and SW 1271 (ATCC, cat. CRL-2177, RRID:CVCL_1716). The small cell lung cancer cell line COR-L88 was purchased from Sigma-Aldrich (cat. 92031917-1VL, RRID:CVCL_1141). The non-small cell lung cancer cell lines NCI-H226 (RRID:CVCL_1544) and NCI-H322M (RRID:CVCL_1557) were established at the NCI and grown from internal seed stocks. Pooled donor human umbilical vein endothelial cells (HUVEC, Lonza, cat. CC-2519) and human mesenchymal stem cells (hMSC, Lonza, cat. PT-2501) were purchased from Lonza (Walkersville, MD).
Cell Culture. All cells were maintained in an incubator at 37 degrees C and 5% CO2 with 95% humidity. […]

[1] = second compound 0.003 µM, first compound 0.00949 µM
[2] = second compound 0.003 µM, first compound 0.03 µM
[3] = second compound 0.003 µM, first compound 0.0949 µM
[4] = second compound 0.003 µM, first compound 0.3 µM
[5] = second compound 0.003 µM, first compound 0.949 µM
[6] = second compound 0.003 µM, first compound 3 µM
[7] = second compound 0.00949 µM, first compound 0.00949 µM
[8] = second compound 0.00949 µM, first compound 0.03 µM
[9] = second compound 0.00949 µM, first compound 0.0949 µM
[10] = second compound 0.00949 µM, first compound 0.3 µM
[11] = second compound 0.00949 µM, first compound 0.949 µM
[12] = second compound 0.00949 µM, first compound 3 µM
[13] = second compound 0.03 µM, first compound 0.00949 µM
[14] = second compound 0.03 µM, first compound 0.03 µM
[15] = second compound 0.03 µM, first compound 0.0949 µM
[16] = second compound 0.03 µM, first compound 0.3 µM
[17] = second compound 0.03 µM, first compound 0.949 µM
[18] = second compound 0.03 µM, first compound 3 µM
[19] = second compound 0.0949 µM, first compound 0.00949 µM
[20] = second compound 0.0949 µM, first compound 0.03 µM
[21] = second compound 0.0949 µM, first compound 0.0949 µM
[22] = second compound 0.0949 µM, first compound 0.3 µM
[23] = second compound 0.0949 µM, first compound 0.949 µM
[24] = second compound 0.0949 µM, first compound 3 µM
[25] = second compound 0.3 µM, first compound 0.00949 µM
[26] = second compound 0.3 µM, first compound 0.03 µM
[27] = second compound 0.3 µM, first compound 0.0949 µM
[28] = second compound 0.3 µM, first compound 0.3 µM
[29] = second compound 0.3 µM, first compound 0.949 µM
[30] = second compound 0.3 µM, first compound 3 µM

SMILES | IC50 (second compound 0.003 µM) | IC50 (second compound 0.00949 µM) | IC50 (second compound 0.03 µM) | IC50 (second compound 0.0949 µM) | IC50 (second compound 0.3 µM) | viability, T/C [3] | viability, T/C [4] | viability, T/C [5] | viability, T/C [6] | viability, T/C [9] | viability, T/C [10] | viability, T/C [11] | viability, T/C [12] | viability, T/C [15] | viability, T/C [16] | viability, T/C [17] | viability, T/C [18] | viability, T/C [21] | viability, T/C [22] | viability, T/C [23] | other results
CNCc1ccc(-c2cc(-c3nc(-c4ccc(S(=O)(=O)C(C)C)cc4)cnc3N)on2)cc1 + CC[C@@]1(O)C(=O)OCc2c1cc1n(c2=O)Cc2cc3c(CN(C)C)c(O)ccc3nc2-1 | 207 nM | 207 nM | 180 nM | 134 nM | 48.6 nM | 66.1% | 36.4% | 33.8% | 11.2% | 69.5% | 37.8% | 28.6% | 12.7% | 61% | 37.7% | 32.4% | 17.5% | 57.2% | 31.8% | 25.1% | viability, T/C [1]: 96.2%; viability, T/C [2]: 91%; viability, T/C [7]: 81.5%; viability, T/C [8]: 85.8%; viability, T/C [13]: 80%; viability, T/C [14]: 79.1%; viability, T/C [19]: 83.3%; viability, T/C [20]: 75.9%; viability, T/C [24]: 12.4%; viability, T/C [25]: 53.1%; viability, T/C [26]: 57.2%; viability, T/C [27]: 45.5%; viability, T/C [28]: 23.8%; viability, T/C [29]: 20.2%; viability, T/C [30]: 6.34%
Cn1ncnc1[C@H]1c2n[nH]c(=O)c3cc(F)cc(c23)N[C@@H]1c1ccc(F)cc1 + CC[C@@]1(O)C(=O)OCc2c1cc1n(c2=O)Cc2cc3c(CN(C)C)c(O)ccc3nc2-1 | > 3000 nM | > 3000 nM | > 3000 nM | 1640 nM | < 9.49 nM | 83.4% | 82.4% | 86.5% | 64.9% | 82.5% | 84.8% | 92.1% | 62.9% | 70.6% | 73.5% | 62% | 57.7% | 60.9% | 59.5% | 58.2% | viability, T/C [1]: 93.5%; viability, T/C [2]: 83.8%; viability, T/C [7]: 91.5%; viability, T/C [8]: 81.9%; viability, T/C [13]: 70.7%; viability, T/C [14]: 73.7%; viability, T/C [19]: 60.6%; viability, T/C [20]: 56%; viability, T/C [24]: 40.9%; viability, T/C [25]: 43.5%; viability, T/C [26]: 45.4%; viability, T/C [27]: 41.9%; viability, T/C [28]: 41.9%; viability, T/C [29]: 37.3%; viability, T/C [30]: 25.1%
O=C(c1cc(Cc2n[nH]c(=O)c3ccccc23)ccc1F)N1CCN(C(=O)C2CC2)CC1 + CC[C@@]1(O)C(=O)OCc2c1cc1n(c2=O)Cc2cc3c(CN(C)C)c(O)ccc3nc2-1 | 23700 nM | 22500 nM | 17700 nM | 10500 nM | < 94.9 nM | 83.3% | 80.5% | 84.1% | 78.9% | 85.6% | 83.8% | 87.1% | 78% | 72.6% | 76.3% | 81.8% | 75.8% | 63.6% | 66.3% | 59.7% | viability, T/C (second compound 0.003 µM, first compound 9.49 µM): 66.6%; viability, T/C (second compound 0.003 µM, first compound 30 µM): 45.7%; viability, T/C (second compound 0.00949 µM, first compound 9.49 µM): 73.7%; viability, T/C (second compound 0.00949 µM, first compound 30 µM): 42.2%; viability, T/C (second compound 0.03 µM, first compound 9.49 µM): 60.5%; viability, T/C (second compound 0.03 µM, first compound 30 µM): 41.1%; viability, T/C [24]: 60.2%; viability, T/C (second compound 0.0949 µM, first compound 9.49 µM): 49.6%; viability, T/C (second compound 0.0949 µM, first compound 30 µM): 39.4%; viability, T/C [27]: 36.2%; viability, T/C [28]: 43.4%; viability, T/C [29]: 43.3%; viability, T/C [30]: 39.6%; viability, T/C (second compound 0.3 µM, first compound 9.49 µM): 31.1%; viability, T/C (second compound 0.3 µM, first compound 30 µM): 17.6%
